Test results reported in ChEMBL document CHEMBL1201862, “PubChem BioAssay data set” (2004).
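Results reflect a 48-hour exposure of cells in 96-well plates to compound at five concentrations. The concentration for 50% growth inhibition is given as GI50.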 Active and inactive are the calls of the source. Cut-off read from the data, not from the text of the source: active = GI50 up to about 1.1 µM and inactive = higher. Residues, ends and D or L forms follow the SMILES beside them.

Tests used:
Assay in all cases: NCI anticancer screen, dose series, 48 h
SK-MEL-28 = test system: SK-MEL-28
UACC-257 = test system: UACC-257
UACC-62 = test system: UACC-62
NCI-H460 = test system: NCI-H460
RPMI-8226 = test system: RPMI-8226
A549 = test system: A549
OVCAR-4 = test system: OVCAR-4
HOP-62 = test system: HOP-62
COLO 205 = test system: COLO 205
MDA-MB-435 = test system: MDA-MB-435
RXF 393 = test system: RXF 393
MDA-N = test system: MDA-N
KM12 = test system: KM12
PC-3 = test system: PC-3
UO-31 = test system: UO-31
786-0 = test system: 786-0
SF-539 = test system: SF-539
IGROV-1 = test system: IGROV-1
SNB-75 = test system: SNB-75
T47D = test system: T47D

With CN1CCN(c2ccc([N+](=O)[O-])c3no[n+]([O-])c23)CC1 the GI50 (SK-MEL-28) was 1.98 µM (inactive), the GI50 (UACC-257) was 1.19 µM (inactive) and the GI50 (UACC-62) was 0.769 µM (active). For the same compound, the GI50 (NCI-H460) was 0.0334 µM (active), the GI50 (RPMI-8226) was 0.0628 µM (active) and the GI50 (A549) was 0.207 µM (active). For the same compound, the GI50 (OVCAR-4) was 0.689 µM (active), the GI50 (HOP-62) was 0.0607 µM (active) and the GI50 (COLO 205) was 0.656 µM (active). For the same compound, the GI50 (MDA-MB-435) was 1.05 µM (active), the GI50 (RXF 393) was 0.122 µM (active) and the GI50 (MDA-N) was 1.36 µM (inactive). For the same compound, the GI50 (KM12) was 0.098 µM (active), the GI50 (PC-3) was 0.557 µM (active) and the GI50 (UO-31) was 0.239 µM (active). The GI50 (786-0) was 0.0452 µM (active), the GI50 (SF-539) was 0.0652 µM (active) and the GI50 (IGROV-1) was 0.0719 µM (active). The GI50 (SNB-75) was 0.0103 µM (active) and the GI50 (T47D) was 0.0661 µM (active).
For O=C(O)Cc1cccnc1, the GI50 (SK-MEL-28) was > 100 µM (inactive), the GI50 (UACC-257) was > 100 µM (inactive) and the GI50 (UACC-62) was > 100 µM (inactive). The GI50 (NCI-H460) was > 100 µM (inactive), the GI50 (RPMI-8226) was > 100 µM (inactive) and the GI50 (A549) was > 100 µM (inactive). The GI50 (OVCAR-4) was > 100 µM (inactive), the GI50 (HOP-62) was > 100 µM (inactive) and the GI50 (COLO 205) was > 100 µM (inactive). The GI50 (MDA-MB-435) was > 100 µM (inactive), the GI50 (RXF 393) was > 100 µM (inactive) and the GI50 (MDA-N) was > 100 µM (inactive). The GI50 (KM12) was > 100 µM (inactive), the GI50 (PC-3) was > 100 µM (inactive) and the GI50 (UO-31) was > 100 µM (inactive). For the same compound, the GI50 (786-0) was > 100 µM (inactive), the GI50 (SF-539) was > 100 µM (inactive) and the GI50 (IGROV-1) was > 100 µM (inactive). For the same compound, the GI50 (SNB-75) was > 100 µM (inactive) and the GI50 (T47D) was > 100 µM (inactive).
For Cc1nc2ccccc2c(=O)n1NC(=O)Cc1ccccc1, the GI50 (SK-MEL-28) was > 100 µM (inactive), the GI50 (UACC-257) was > 100 µM (inactive) and the GI50 (UACC-62) was 43.5 µM (inactive). For the same compound, the GI50 (NCI-H460) was > 100 µM (inactive), the GI50 (RPMI-8226) was > 100 µM (inactive) and the GI50 (A549) was > 100 µM (inactive). The GI50 (OVCAR-4) was > 100 µM (inactive), the GI50 (HOP-62) was > 100 µM (inactive) and the GI50 (COLO 205) was > 100 µM (inactive). The GI50 (MDA-MB-435) was > 100 µM (inactive), the GI50 (RXF 393) was > 100 µM (inactive) and the GI50 (MDA-N) was > 100 µM (inactive). The GI50 (KM12) was > 100 µM (inactive), the GI50 (PC-3) was > 100 µM (inactive) and the GI50 (UO-31) was > 100 µM (inactive). For the same compound, the GI50 (786-0) was > 100 µM (inactive), the GI50 (SF-539) was > 100 µM (inactive) and the GI50 (IGROV-1) was > 100 µM (inactive). For the same compound, the GI50 (SNB-75) was 31 µM (inactive) and the GI50 (T47D) was > 100 µM (inactive).
With N#CCCN(CCC#N)c1ccc(C(/N=N/c2ccccc2)=N\c2ccccc2)cc1 the GI50 (SK-MEL-28) was > 100 µM (inactive), the GI50 (UACC-257) was > 100 µM (inactive) and the GI50 (UACC-62) was > 100 µM (inactive). The GI50 (NCI-H460) was > 100 µM (inactive), the GI50 (RPMI-8226) was > 100 µM (inactive) and the GI50 (A549) was > 100 µM (inactive). The GI50 (OVCAR-4) was > 100 µM (inactive), the GI50 (HOP-62) was > 100 µM (inactive) and the GI50 (COLO 205) was > 100 µM (inactive). The GI50 (MDA-MB-435) was > 100 µM (inactive), the GI50 (RXF 393) was > 100 µM (inactive) and the GI50 (MDA-N) was > 100 µM (inactive). The GI50 (KM12) was > 100 µM (inactive), the GI50 (PC-3) was > 100 µM (inactive) and the GI50 (UO-31) was > 100 µM (inactive). The GI50 (786-0) was > 100 µM (inactive), the GI50 (SF-539) was > 100 µM (inactive) and the GI50 (IGROV-1) was > 100 µM (inactive). The GI50 (SNB-75) was > 100 µM (inactive) and the GI50 (T47D) was > 100 µM (inactive).
For Cc1nc2c(nc1C)-c1c(c3c(n1C)C(=O)CCC3)C(=O)C2=O, the GI50 (SK-MEL-28) was 0.622 µM (active), the GI50 (UACC-257) was 1.4 µM (inactive) and the GI50 (UACC-62) was 0.406 µM (active). For the same compound, the GI50 (NCI-H460) was 1.23 µM (inactive), the GI50 (RPMI-8226) was 0.194 µM (active) and the GI50 (A549) was 1.3 µM (inactive). The GI50 (OVCAR-4) was 0.145 µM (active), the GI50 (HOP-62) was 0.885 µM (active) and the GI50 (COLO 205) was 1.75 µM (inactive). The GI50 (MDA-MB-435) was 0.174 µM (active), the GI50 (RXF 393) was 0.16 µM (active) and the GI50 (MDA-N) was 0.162 µM (active). The GI50 (KM12) was 1.45 µM (inactive), the GI50 (PC-3) was 1.17 µM (inactive) and the GI50 (UO-31) was 0.456 µM (active). The GI50 (786-0) was 1.39 µM (inactive), the GI50 (SF-539) was 1.22 µM (inactive) and the GI50 (IGROV-1) was 0.337 µM (active). For the same compound, the GI50 (SNB-75) was 0.931 µM (active) and the GI50 (T47D) was 0.0697 µM (active).
With C[C@]1(O)O[C@@H]2OCC[C@@H]2C2=C1C(=O)c1ccccc1C2=O the GI50 (SK-MEL-28) was 29.4 µM (inactive), the GI50 (UACC-257) was 17.1 µM (inactive) and the GI50 (UACC-62) was 19.2 µM (inactive). For the same compound, the GI50 (NCI-H460) was 16 µM (inactive), the GI50 (RPMI-8226) was 3.62 µM (inactive) and the GI50 (A549) was 17.9 µM (inactive). The GI50 (OVCAR-4) was 12.5 µM (inactive), the GI50 (HOP-62) was 12.7 µM (inactive) and the GI50 (COLO 205) was 24.9 µM (inactive). The GI50 (MDA-MB-435) was 6.56 µM (inactive), the GI50 (RXF 393) was 12.7 µM (inactive) and the GI50 (MDA-N) was 6.15 µM (inactive). For the same compound, the GI50 (KM12) was 14.8 µM (inactive), the GI50 (PC-3) was 22.1 µM (inactive) and the GI50 (UO-31) was 17.9 µM (inactive). The GI50 (786-0) was 14.4 µM (inactive), the GI50 (SF-539) was 17.3 µM (inactive) and the GI50 (IGROV-1) was 14.2 µM (inactive). The GI50 (SNB-75) was 29.6 µM (inactive) and the GI50 (T47D) was 18.3 µM (inactive).
With COC(=O)CCC1=NCC(C)(C)O1 the GI50 (SK-MEL-28) was > 10 µM (inactive), the GI50 (UACC-257) was > 10 µM (inactive) and the GI50 (UACC-62) was > 10 µM (inactive). The GI50 (NCI-H460) was > 10 µM (inactive), the GI50 (RPMI-8226) was > 10 µM (inactive) and the GI50 (A549) was > 10 µM (inactive). For the same compound, the GI50 (OVCAR-4) was > 10 µM (inactive), the GI50 (HOP-62) was > 10 µM (inactive) and the GI50 (COLO 205) was > 10 µM (inactive). The GI50 (MDA-MB-435) was > 10 µM (inactive), the GI50 (RXF 393) was > 10 µM (inactive) and the GI50 (MDA-N) was > 10 µM (inactive). For the same compound, the GI50 (KM12) was > 10 µM (inactive), the GI50 (PC-3) was > 10 µM (inactive) and the GI50 (UO-31) was > 10 µM (inactive). For the same compound, the GI50 (786-0) was > 10 µM (inactive), the GI50 (SF-539) was > 10 µM (inactive) and the GI50 (IGROV-1) was > 10 µM (inactive). The GI50 (SNB-75) was 2.79 µM (inactive) and the GI50 (T47D) was > 10 µM (inactive).
For CC1(C)CC2C=C(C=O)C3(C=O)CC3(C)C2C1 (stereo not given), the GI50 (SK-MEL-28) was 2.06 µM (inactive), the GI50 (UACC-257) was 2.38 µM (inactive) and the GI50 (UACC-62) was 5.46 µM (inactive). For the same compound, the GI50 (NCI-H460) was 4.44 µM (inactive), the GI50 (RPMI-8226) was 0.378 µM (active) and the GI50 (A549) was 10.2 µM (inactive). For the same compound, the GI50 (OVCAR-4) was 1.73 µM (inactive), the GI50 (HOP-62) was 2.09 µM (inactive) and the GI50 (COLO 205) was 1.89 µM (inactive). For the same compound, the GI50 (MDA-MB-435) was 1.75 µM (inactive), the GI50 (RXF 393) was 1.94 µM (inactive) and the GI50 (MDA-N) was 2.9 µM (inactive). The GI50 (KM12) was 4.39 µM (inactive), the GI50 (PC-3) was 1.12 µM (active) and the GI50 (UO-31) was 1.69 µM (inactive). For the same compound, the GI50 (786-0) was 1.52 µM (inactive), the GI50 (SF-539) was 1.95 µM (inactive) and the GI50 (IGROV-1) was 2.15 µM (inactive). For the same compound, the GI50 (SNB-75) was 1.89 µM (inactive) and the GI50 (T47D) was 1.33 µM (inactive).
With CC(=O)NC(CO)C(=O)NC(Cc1ccc(O)cc1)C(=O)NCC(N)=O (stereo not drawn) (Ac-Ser-Tyr-Gly-NH2; configuration not given here) the GI50 (SK-MEL-28) was > 100 µM (inactive), the GI50 (UACC-257) was > 100 µM (inactive) and the GI50 (UACC-62) was > 100 µM (inactive). For the same compound, the GI50 (NCI-H460) was > 100 µM (inactive), the GI50 (RPMI-8226) was > 100 µM (inactive) and the GI50 (A549) was > 100 µM (inactive). For the same compound, the GI50 (OVCAR-4) was > 100 µM (inactive), the GI50 (HOP-62) was > 100 µM (inactive) and the GI50 (COLO 205) was > 100 µM (inactive). The GI50 (MDA-MB-435) was > 100 µM (inactive), the GI50 (RXF 393) was > 100 µM (inactive) and the GI50 (MDA-N) was > 100 µM (inactive). For the same compound, the GI50 (KM12) was > 100 µM (inactive), the GI50 (PC-3) was > 100 µM (inactive) and the GI50 (UO-31) was > 100 µM (inactive). For the same compound, the GI50 (786-0) was > 100 µM (inactive), the GI50 (SF-539) was > 100 µM (inactive) and the GI50 (IGROV-1) was > 100 µM (inactive). For the same compound, the GI50 (SNB-75) was > 100 µM (inactive) and the GI50 (T47D) was > 100 µM (inactive).
